Measurements as given in ChEMBL document CHEMBL1156592, “4-(1H-indazol-5-yl)-6-phenylpyrimidin-2(1H)-one analogs as potent CDC7 inhibitors” (Bioorg Med Chem Lett, 2008).

Columns and labels:
[1] = target: Cell division cycle 7-related protein kinase (Homo sapiens, UniProt O00311); assay: Inhibition of CDC7-DBF4
A549 = assay: Growth inhibition of human A549 cells; type: functional
[2] = Metabolic stability in mouse microsomes assessed as half life; type: ADME, Microsome

Cell division cycle 7-related protein kinase, sequence (O00311 whole entry): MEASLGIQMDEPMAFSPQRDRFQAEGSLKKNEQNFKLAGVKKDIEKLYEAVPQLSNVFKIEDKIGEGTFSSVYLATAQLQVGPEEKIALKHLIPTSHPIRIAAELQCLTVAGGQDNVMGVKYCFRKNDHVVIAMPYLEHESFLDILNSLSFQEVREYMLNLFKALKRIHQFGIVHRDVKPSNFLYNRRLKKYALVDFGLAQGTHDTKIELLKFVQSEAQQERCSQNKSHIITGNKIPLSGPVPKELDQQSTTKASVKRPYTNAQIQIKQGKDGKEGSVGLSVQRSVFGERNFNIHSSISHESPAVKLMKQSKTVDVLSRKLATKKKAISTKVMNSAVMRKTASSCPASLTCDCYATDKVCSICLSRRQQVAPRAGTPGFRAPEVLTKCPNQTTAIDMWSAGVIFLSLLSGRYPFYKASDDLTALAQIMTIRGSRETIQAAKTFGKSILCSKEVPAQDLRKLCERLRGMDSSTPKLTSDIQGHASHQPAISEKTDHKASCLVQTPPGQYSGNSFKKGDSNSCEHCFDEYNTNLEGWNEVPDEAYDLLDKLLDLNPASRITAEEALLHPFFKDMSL

IC50 [1] [nM] | GI50 (A549) [nM] | half-life [2] [min] | Compound
350 |  |  | O=c1nc(-c2ccc3[nH]ncc3c2)cc(-c2ccc(OCc3ccccc3)cc2)[nH]1
100 |  |  | CCc1ccc(-c2cc(-c3ccc4n[nH]cc4c3)nc(=O)[nH]2)cc1
150 |  |  | O=c1nc(-c2ccc3[nH]ncc3c2)cc(-c2cccc(F)c2)[nH]1
> 13000 |  |  | O=c1nc(-c2ccncc2)cc(-c2cccc(Cl)c2)[nH]1
 | > 10000 |  | Cc1cc(-c2cc(-c3ccccc3)[nH]c(=O)n2)ccc1O
40 |  |  | O=c1nc(-c2ccc3[nH]ncc3c2)cc(-c2ccc(N3CCNCC3)cc2)[nH]1
110 |  |  | O=c1nc(-c2ccc3[nH]ncc3c2)cc(-c2cccc(C(F)(F)F)c2)[nH]1
10 |  |  | O=c1nc(-c2ccc3[nH]ncc3c2)cc(-c2ccccc2F)[nH]1
7300 |  |  | COc1ccc(-c2cc(-c3ccnc(N(C)C)c3)nc(=O)[nH]2)c(OC)c1
5 | 600 |  | O=c1nc(-c2ccc3[nH]ncc3c2)cc(-c2cccc(Cl)c2)[nH]1
6 |  |  | O=c1nc(-c2ccc3[nH]ncc3c2)cc(-c2cccc(OCc3ccccc3)c2)[nH]1
30 | > 10000 | 4 | O=c1nc(-c2ccc(O)cc2)cc(-c2ccccc2)[nH]1
1000 |  |  | COc1ccc(-c2cc(-c3ccnc(N)c3)nc(=O)[nH]2)c(OC)c1
